Like-named read-outs stand apart in the source and are kept apart here.
Experiments:
[1] = test system: stress ulcer formation; experiment: WIS: Restraint and Water Immersion Stress-Induced Ulcer Inhibition Test; format: in vivo, rat (male Crj:SD or Slc:SD); conditions: rat; for WIS: ulcer formation inhibitory rate: 100 mg/kg oral, 7 hours stress; for anti-ulcer effect (in words): in vivo
Experimental: WIS: Restraint and Water Immersion Stress-Induced Ulcer Inhibition Test
The degree of inhibition of the stress ulcer formation is tested.
Male Crj:SDor Slc:SD rats (6 to 7-week-old) were fasted overnight, but allowed free access to water. Each group has 5 to 8 of these rats. The sample compound was dissolved or suspended in an aqueous solution of 0.3% sodium carboxymethylcellulose or 0.05% Tween 80 and then was orally administered (100 mg/10 ml/kg). To a control group, the vehicle was administered. 10 minuts later, the rats were placed in a stress cage and immersed to the level of xipfoid process in a water bath (21° C.) for 7 hours. At the end of the stress, the rats were sacrificed by inhalation of ether or carbon dioxide. Then, the stomach of each was removed, inflated by injecting 10 ml of 5% formalin neutral buffer solution, and immersed in 1% formalin neutral buffer solution for 30 minutes or more to be fixed. The stomach was incised along the greater curvature and then the length of each erosion in the glandular portion was determined under dissecting microscope. The sum of the length of erosions per stomach was defined as ulcer index (UI).
The effect obtained when 100 mg/kg of the sample compound had been administered was expressed as ulcer formation inhibitory rate (%) as follows:
ulcer formation inhibitory rate (%)=[1-(UI in sample group/UI in control group)]×100

[2] = test system: gastric mucosa; experiment: PD: Gastric Mucosal Integrity Test; format: in vivo, rat (male Crj:SD); conditions: rat, 100 mg/kg into ex vivo chamber, 60 minutes
Experimental: PD: Gastric Mucosal Integrity Test
In this case, since the sample compound has a necrotizing effect, it is inappropriate as an anti-ulcer medicament.
Therefore, the gastric mucosal potential difference (PD), which reflects the integrity of the gastric mucosa, is measured so as to confirm that the sample compound has no damasing effect on gastric mucosa, which is toxicity at gastric mucosal level.
Male Crj:SD rats (7 to 8-week-old) was fasted overnight, but allowed free access to water, and then, under urethane anesthesia (1.25 g/kg, i.p.), fixed to a cork board on its back. The abdomen of each rat was incised, and a small incision was made in the forestomach. Then, the inside of the stomach was washed with physiological saline heated at 37° C. From the forestomach, along the greater curvature thereof, the stomach was incised without damaging blood vessels. After the height of the cork board was adjusted on a jack, the stomach was mounted on ex vivo chamber. The area of the gastric mucosa exposed to the inside of this chamber was 2.5 cm^2. The inside of the chamber was perfused with physiological saline warmed at 37° C. by micro tube pump. By using an agar bridge containing 3M KCl, the potential difference between the chamber and the abdominal cavity was measured by a PD meter. Here, the rectal temperature was measured to control the body temperature during the experiment. After the PD was sufficiently stabilized, the perfusate was stopped and then 100 mg/10 ml/kg of the sample compound dissolved or suspended in an aqueous solution of 0.5% sodium carboxymethyl cellulose or 0.05% Tween 80 were administered into the chamber, while PD was recorded for 60 minutes. To a control, the vehicle was administered.
The change in PD during 60 minutes after the administration of 100 mg/kg of the sample compound was collectively studied and, with reference to the positive control, classified into 5 levels as follows:
5: Same as the control with no recognizable damage at all.
3: Though a weak decrease in PD and a possibility of a weak mucosal damage is recognized, there is no substantial problem.
2: Medium degree of decrease in PD is found and a mucosal damage is recognized.
1: Heavy degree of decrease in PD is found and a remarkable mucosal damage is recognized.

[3] = MTT: Cell Damaging and Protecting Effect Test; format: cell-based, rabbit (male Japanese White); conditions: rabbit, gastric mucosal cells
Text: MTT: Cell Damaging and Protecting Effect Test
It is confirmed that there is no toxicity in cell level. Those having a toxicity in cell level are inappropriate as an anti-ulcer drug.
A male Japanese White rabbit (2.5 to 3 kg) was anesthetized to death by Nembutal™ and, immediately thereafter, its stomach was removed. The greater curvature of the stomach was incised so as to remove the stomach contents therefrom. After the mucosal surface was washed with HBSS (Hanks' Balanced Salt Solution), the stomach in ice-cooled HBSS was transferred to a laboratory. Then, after the pyloric antrum was removed, the gastric corpus mucosa was separated by a spatula and then minced into 2 to 3 mm^3 pieces in BME (Basal Medium Eagle). Thereafter, these pieces were shaken at 120 to 130 cycles/minute for 15 minutes at 37° C. in BME 60ml containig 280 U/ml of dispase and 30 to 50 U/ml of collagenase. Here, the concentration of collagenase was appropriately changed for each lot in view of the state of cells. The pieces were washed twice with EBSS (Earle's Balanced Salt Solution) containing 1 mM of EDTA and then shaken in MEM (Minimum Essential Medium) containing 1 mM of EDTA at 37° C. for 5 minutes. Subsequently, they were shaken in the dispase and collagenase having the same concentrations as those mentioned above for 15 minutes so as to remove the supernatant and then further shaken at 37° C. for 50 to 60 minutes at 120 to 130 cycles/minute. Then, after being washed twice with HBSS, Ham F12 containing 2% of Ultrocer G™ was used to attain the concentration of 1×10^6 cells/ml. Thus formed suspension was dispensed in each well of a 96-well plate by 200 μl. The plate was incubated in the atmosphere composed of 5% CO2 and 95% air at 37° C. for three days so as to attain a confluent state and then subjected to MTT assay.
The sample compound was dissolved in DMSO so as to attain a concentration of 10^-2 M and then diluted with HBSS containing 2% of Ultrocer G™ so as to attain a final concentration of 10^-4 M. To each group, which 8 wells were used for, 10 μl of MTT reagent were added immediately after 100 μl of the medium in each well were exchanged for same volume of the resulting solution of the sample compound. After being incubated in an atmosphere composed of 5% CO2 and 95% air at 37° C. for 4 hours, thus formed solution was centrifuged and then its supernatant was discarded. Subsequently, 100 μl of 100% ethanol were added to the residue so as to dissolve MTT formazan. Then, the absorbance (OD: 570 to 630) was measured by a microplate reader. This method utilizes a phenomenon in which MTT is changed to MTT formazan only by mitochondria of living cells so as to change color.
The cell damaging or cell protecting effect of the sample compound at the final concentration of 10^-4 M was expressed as cell damaging rate (%) as follows:
cell damaging rate (%)=[1-(absorbance in sample group/absorbance in control group)]×100
Accordingly, the smaller value is better in the cell damaging rate.

[4] = final concentration 10^-4 M, 4 hours, smaller value is better, read-out: MTT: cell damaging rate

Row | PD: change in gastric mucosal potential difference, level [2] | SMILES | WIS: ulcer formation inhibitory rate [1] [%] | anti-ulcer effect (in words) [1] | cytotoxicity at 4 h, 100 µM [3, 4] [%] | cytotoxicity at 4 h, 100 µM ([3]; MTT: cell damaging rate) [%]
1 | 2 | CC(C)Cc1cc(CN2CCN(CC(C)C)CC2)ccc1OCc1ccc(F)cc1.Cl.Cl [Example 20, 1-[4-(4-fluorobenzyloxy)-3-isobutylbenzyl]-4-isobutylpiperazine dihydrochloride] | 82 | effects were observed | 45 | 
2 |  | CC(C)Cc1cc(C(=O)N2CCN(CC(C)C)CC2)ccc1OCc1ccc(F)c(F)c1 [Example 26, 1-[4-(3,4-difluorobenzyloxy)-3-isobutylbenzoyl]-4-isobutylpiperazine] | 63 |  |  | 
3 |  | CC(C)Cc1cc(C(=O)N2CCN(C(=O)C(C)C)CC2)ccc1OCc1ccc(F)cc1 [Example 6, 1-[4-(4-fluorobenzyloxy)-3-isobutylbenzoyl]-4-isobutyrylpiperazine] | 56 | sufficient effects | -29 | 
4 | 5 | CC(C)Cc1cc(C(=O)N2CCN(CC(C)C)CC2)ccc1OCc1ccc(F)cc1 [Example 21, 1-[4-(4-fluorobenzyloxy)-3-isobutylbenzoyl]-4-isobutylpiperazine] | 84 | improved |  | 
5 | 5 | CC(C)CN1CCN(C(=O)c2ccc(OCc3ccccc3)cc2)CC1 [Example 3, 1-(4-benzyloxybenzoyl)-4-isobutylpiperazine] | 69 |  | -16 | 
6 | 2 | CC(C)Cc1cc(C(=O)N2CCN(CC(C)C)CC2)ccc1OCc1ccc(F)cc1F.Cl [Example 24, 1-[4-(2,4-difluorobenzyloxy)-3-isobutylbenzoyl]-4-isobutylpiperazine hydrochloride] | 72 |  |  | 
7 |  | CC(C)Cc1cc(C(=O)N2CCN(CC(C)C)CC2)ccc1OCc1ccc(F)cc1F [Example 27, 1-[4-(2,4-difluorobenzyloxy)-3-isobutylbenzoyl]-4-isobutylpiperazine] | 60 |  |  | 
8 | 5 | CC(C)Cc1cc(C(=O)N2CCN(CC(C)C)CC2)ccc1OCc1ccc(F)cc1.Cl [Example 22, 1-[4-(4-fluorobenzyloxy)-3-isobutylbenzoyl]-4-isobutylpiperazine hydrochloride] | 85 | improved |  | 
9 | 2 | CC(C)CN1CCN(C(=O)c2ccc(OCc3ccc(F)cc3)cc2)CC1.Cl [Example 2, 1-[4-(4-fluorobenzyloxy)benzoyl]-4-isobutylpiperazine hydrochloride] | 79 |  |  | 
10 |  | CC(C)Cc1cc(CC(=O)N2CCN(CC(C)C)CC2)ccc1OCc1ccccc1 [Example 15, 1-(4-benzyloxy-3-isobutylphenylacetyl)-4-isobutylpiperazine] | 71 | sufficient effects were observed |  | -55
11 |  | CC(C)Cc1cc(C(=O)N2CCN(CC(C)C)CC2)ccc1OCc1ccc(F)c(F)c1.Cl [Example 23, 1-[4-(3,4-difluorobenzyloxy)-3-isobutylbenzoyl]-4-isobutylpiperazine hydrochloride] | 83 |  | 28 | 
12 | 2 | CC(C)Cc1cc(C(=O)N2CCN(CC(C)C)CC2)ccc1OCc1ccccc1F.Cl [Example 19, 1-[4-(2-fluorobenzyloxy)-3-isobutylbenzoyl]-4-isobutylpiperazine hydrochloride] | 64 |  |  | 
13 |  | CC(C)CN1CCN(C(=O)c2ccc(OCc3ccc(F)cc3)cc2)CC1 [Example 5, 1-[4-(4-fluorobenzyloxy)benzoyl]-4-isobutylpiperazine] | 59 |  |  | 
14 | 2 | CC(C)Cc1cc(C(=O)N2CCN(CC(C)C)CC2)ccc1OCc1ccc([N+](=O)[O-])cc1.Cl [Example 13, 1-isobutyl-4-[3-isobutyl-4-(4-nitrobenzyloxy)benzoyl]piperazine hydrochloride] | 77 |  | -66 | 
15 |  | C=C(C)Cc1cc(C(=O)N2CCN(CC(C)C)CC2)ccc1OCc1ccc(F)cc1.Cl [Example 4, 1-[4-(4-fluorobenzyloxy)-3-methallylbenzoyl]-4-isobutylpiperazine hydrochloride] | 65 |  | -67 | 
16 |  | CC(C)Cc1cc(C(=O)N2CCN(CC(C)C)CC2)ccc1OCc1ccc(F)cc1.O=C(O)C(=O)O [Example 25, 1-[4-(4-fluorobenzyloxy)-3-isobutylbenzoyl]-4-isobutylpiperazine oxalate] | 70 |  |  | 
17 |  | COc1ccc(COc2ccc(C(=O)N3CCN(CC(C)C)CC3)cc2CC(C)C)cc1 [Example 14, 1-isobutyl-4-[3-isobutyl-4-(4-methoxybenzyloxy)benzoyl]piperazine] | 76 |  | 11 | 
18 | 3 | CC(C)Cc1cc(C(=O)N2CCN(CC(C)C)CC2)ccc1OCc1ccccc1F [Example 18, 1-[4-(2-fluorobenzyloxy)-3-isobutylbenzoyl]-4-isobutylpiperazine] | 64 |  |  | 

Row | SMILES | PD: change in gastric mucosal potential difference, level [2] | WIS: ulcer formation inhibitory rate [1] [%] | anti-ulcer effect (in words) [1] | cytotoxicity at 4 h, 100 µM [3, 4] [%] | cytotoxicity at 4 h, 100 µM ([3]; MTT: cell damaging rate) [%]
19 | CC(C)Cc1cc(C(=O)N2CCN(CC(C)C)CC2)ccc1OCc1ccc(Cl)cc1 [Example 17, 1-[4-(4-chlorobenzyloxy)-3-isobutylbenzoyl]-4-isobutylpiperazine] | 4 | 66 |  | -18 | 
